Data from the METLIN SMRT retention time set (Domingo-Almenara et al. 2019).

Experiment: gradient 5% acetonitrile 3 min, to 50% in 2 min, to 85% in 15 min, held 3 min, 100 µL/min
Details: column: Zorbax Extend-C18 2.1 x 50 mm; eluents: water / acetonitrile, 0.1% formic acid
In short: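 Standards, all pure, were combined into mixtures of ~100 molecules and run at 100 μL/min on a Zorbax Extend-C18 column (2.1 × 50 mm, 1.8 μm) with water and acetonitrile, each containing 0.1% formic acid. A coupled quadrupole time-of-flight mass spectrometer operated in positive and negative ionization mode. Retention time values come from computationally picked adduct peaks, each inspected manually.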

Q: For CC1CCN(C(=O)c2cc(S(=O)(=O)N3CCC(C(=O)N4CCCCC4)CC3)cn2C)CC1, which RP-LC retention time is on record?
A: Its RP-LC retention time is 796 s.

Q: With O=C(NCC(=O)N1CCCc2ccccc21)c1ccccc1F as the compound, how does the RP-LC retention time read?
A: The RP-LC retention time was 831 s.

Q: With COc1ccc(Cl)cc1NC(=O)N1CC2CC1C(=O)O2 (stereo unspecified) as the compound, how does the RP-LC retention time read?
A: The RP-LC retention time was 699 s.

Q: With CCC1CCCCN1Cc1nc(Cn2ccn3nc(-c4ccc(C)c(C)c4)cc3c2=O)no1 (stereo unspecified) as the compound, how does the RP-LC retention time read?
A: The RP-LC retention time was 765 s.

Q: For CC(C)(C)CC(C)(C)n1nnnc1N, which RP-LC retention time is on record?
A: The RP-LC retention time was 771 s.

Q: Which RP-LC retention time does the source give for O=C(Cc1ccc(F)cc1)Nc1nnc(C2CC(=O)N(c3ccccc3)C2)o1 (stereo unspecified) here?
A: Its RP-LC retention time is 716 s.

Q: With Cc1ccccc1-c1nsc(SCC(=O)NCc2ccco2)n1 as the compound, how does the RP-LC retention time read?
A: The RP-LC retention time was 892 s.

Q: For O=C(CCc1ccc2nc(-c3ccccc3)[nH]c2c1)N1CCC(N2CCCCC2)CC1, which RP-LC retention time is on record?
A: The RP-LC retention time was 559 s.

Q: With CCc1nnc(NC(=O)CSc2nnc(NC(=O)NC(C)(C)C)s2)s1 as the compound, how does the RP-LC retention time read?
A: Its RP-LC retention time is 672 s.

Q: With Cc1c(CCOC(=O)c2ccc([N+](=O)[O-])cc2)sc[n+]1Cc1ccccc1 as the compound, how does the RP-LC retention time read?
A: The RP-LC retention time was 909 s.

Q: For CC(Oc1ccccc1)C(=O)N1CCN(c2nc(CN3CCOCC3)cs2)CC1 (stereo unspecified), which RP-LC retention time is on record?
A: The RP-LC retention time was 621 s.

Q: For N#Cc1cccc(NC(=O)CN2C(=O)NC(c3ccc(Cl)cc3)C3=C2COC3=O)c1 (stereo unspecified), which RP-LC retention time is on record?
A: Its RP-LC retention time is 763 s.

Q: With COc1ccc(N2C=C(C(=O)N3CCOCC3)S(=O)(=O)c3ccc(F)cc32)cc1 as the compound, how does the RP-LC retention time read?
A: Its RP-LC retention time is 778 s.

Q: Which RP-LC retention time does the source give for Cc1ccccc1CC(=O)N1CCCC(COc2ccc(C(=O)N3CCOCC3)cc2)C1 (stereo unspecified) here?
A: The RP-LC retention time was 811 s.

Q: For O=C(CN1C[C@H]2C[C@H](C1)[C@H]1CCCC(=O)N1C2)NCCC1=CCCCC1, which RP-LC retention time is on record?
A: Its RP-LC retention time is 627 s.

Q: For CSc1cccc(NC(=O)N2CCC(c3nc(C(=O)N4CCCCC4)c(C)o3)CC2)c1, which RP-LC retention time is on record?
A: The RP-LC retention time was 828 s.

Q: Which RP-LC retention time does the source give for CCOc1ccc(S(=O)(=O)N2CCCC(C(=O)NCc3ccccn3)C2)cc1 (stereo unspecified) here?
A: The RP-LC retention time was 623 s.

Q: With COc1ccc(-c2cn3c(CC(=O)N4CCN(c5ccc(Cl)cc5)CC4)csc3n2)cc1OC as the compound, how does the RP-LC retention time read?
A: Its RP-LC retention time is 816 s.

Q: Which RP-LC retention time does the source give for CCOc1ccccc1CNC(=O)C1CCN(C(=O)c2sccc2-n2cccc2)CC1 here?
A: The RP-LC retention time was 882 s.

Q: With O=C(C1CC(=O)N(c2ccc3c(c2)CCN3C(=O)C2CC2)C1)N1CCC2(CC1)OCCO2 (stereo unspecified) as the compound, how does the RP-LC retention time read?
A: The RP-LC retention time was 652 s.

Q: Which RP-LC retention time does the source give for Cc1noc(/C=C\c2ccc(S(=O)(=O)NCC3CCCO3)cc2)c1NC(=O)C1CC1 (stereo unspecified) here?
A: The RP-LC retention time was 737 s.

Q: For Cc1nc(-c2cnccn2)nc2c1CCC(=O)N2CC1CCCO1 (stereo unspecified), which RP-LC retention time is on record?
A: The RP-LC retention time was 626 s.

Q: For CC(C)c1ccc(NC(=O)Cn2nc(N3CCOCC3)c3ccccc3c2=O)cc1, which RP-LC retention time is on record?
A: Its RP-LC retention time is 905 s.

Q: Which RP-LC retention time does the source give for COCC(=O)Nc1ccccc1NC(=O)c1ccsc1 here?
A: Its RP-LC retention time is 648 s.

Q: With O=C(Cn1c(=O)c(S(=O)(=O)c2ccccc2)cc2ccccc21)NCc1ccco1 as the compound, how does the RP-LC retention time read?
A: The RP-LC retention time was 810 s.

Q: Which RP-LC retention time does the source give for COc1ccc2c(OCc3nnc4ccc(-c5ccccc5)nn34)ccnc2c1 here?
A: Its RP-LC retention time is 690 s.

Q: For COc1cc(C(c2nnnn2C(C)(C)C)N2CCN(c3ccccn3)CC2)cc(OC)c1OC (stereo unspecified), which RP-LC retention time is on record?
A: Its RP-LC retention time is 578 s.

Q: For COc1ccc(Cn2nc3c(S(=O)(=O)N4CCc5ccccc5C4)cccn3c2=O)cc1, which RP-LC retention time is on record?
A: Its RP-LC retention time is 946 s.

Q: With CCCN1CCn2cc(S(=O)(=O)NCc3ccc(OC)cc3)cc2C1=O as the compound, how does the RP-LC retention time read?
A: The RP-LC retention time was 990 s.

Q: Which RP-LC retention time does the source give for Cc1cc(C)cc(NC(=O)Cn2nc(N3CCCC3)c3ccccc3c2=O)c1 here?
A: The RP-LC retention time was 1010 s.

Q: For Cc1c(S(=O)(=O)N2CCCC(C)C2)c(C)n(C)c1C(=O)Nc1cccc(F)c1 (stereo unspecified), which RP-LC retention time is on record?
A: Its RP-LC retention time is 1100 s.

Q: With CCOC(=O)c1sc(NC(=O)CN2C(=O)c3ccccc3C2=O)c(SC#N)c1C as the compound, how does the RP-LC retention time read?
A: The RP-LC retention time was 912 s.

Q: For OC[C@@H]1CN(C2CCCC2)C[C@H]1c1nc(-c2ccncc2)no1, which RP-LC retention time is on record?
A: The RP-LC retention time was 553 s.

Q: Which RP-LC retention time does the source give for CCOCCCNC(=O)C1c2cc(OC)c(OC)cc2C(=O)N2CCc3ccccc3C12 (stereo unspecified) here?
A: The RP-LC retention time was 718 s.

Q: Which RP-LC retention time does the source give for COc1ccc(C2(C(=O)N3CC(N(Cc4ccncc4)CC4CC4)C3)CCCCC2)cc1 here?
A: The RP-LC retention time was 755 s.

Q: For Cc1ccn2cc(-c3ccc(NC(=O)c4cccc(Cl)c4)cc3)nc2n1, which RP-LC retention time is on record?
A: Its RP-LC retention time is 678 s.

Q: For COc1ccc(NC(=O)Cn2cccc(-c3nc(-c4ccc(OC)c(OC)c4)no3)c2=O)c(OC)c1, which RP-LC retention time is on record?
A: The RP-LC retention time was 788 s.

Q: With Cc1ccc(NS(=O)(=O)c2ccc3c(c2)CCCC(=O)N3)cc1Cl as the compound, how does the RP-LC retention time read?
A: The RP-LC retention time was 806 s.

Q: With CCc1ccc(C(=O)CC2(O)C(=O)Nc3c(C)cccc32)cc1 (stereo unspecified) as the compound, how does the RP-LC retention time read?
A: The RP-LC retention time was 807 s.

Q: With CC(=O)Nc1nc2ccc(CC(=O)Nc3ccc(F)cc3)cc2s1 as the compound, how does the RP-LC retention time read?
A: Its RP-LC retention time is 714 s.

Q: With O=C1COc2ccccc2N1Cc1nc(-c2ccccc2Cl)no1 as the compound, how does the RP-LC retention time read?
A: The RP-LC retention time was 995 s.

Q: With Cc1ccc(-n2nc3c(N4CCCC(C(=O)NCCc5cccs5)C4)nnc(C)c3c2C)cc1 (stereo unspecified) as the compound, how does the RP-LC retention time read?
A: The RP-LC retention time was 748 s.

Q: With Cc1oc(-c2[nH]ncc2C(=O)N2CCCCC2)cc1S(=O)(=O)Nc1cccc(Cl)c1 as the compound, how does the RP-LC retention time read?
A: Its RP-LC retention time is 796 s.

Q: With CC(O)C1CCN(Cc2ccc(Br)o2)CC1 (stereo unspecified) as the compound, how does the RP-LC retention time read?
A: The RP-LC retention time was 566 s.

Q: With CCc1nnc(-c2cc(C)n(CC(=O)Nc3ccc(F)c(Cl)c3)c2C)o1 as the compound, how does the RP-LC retention time read?
A: Its RP-LC retention time is 861 s.

Q: Which RP-LC retention time does the source give for O=C(C1CCOC1)N1CCC(CCOc2cccc(F)c2)CC1 (stereo unspecified) here?
A: Its RP-LC retention time is 834 s.

Q: Which RP-LC retention time does the source give for CCOC(=O)c1sc(NC(=O)c2cc(=O)c3ccccc3o2)nc1-c1ccccc1 here?
A: The RP-LC retention time was 1010 s.

Q: For Cc1cccc(N2C(=O)NC3CC2(C)Oc2ccccc23)c1 (stereo unspecified), which RP-LC retention time is on record?
A: The RP-LC retention time was 852 s.

Q: With CCN1CCN(CCNC(=O)C2CCCN(S(=O)(=O)c3ccc4c(ccn4CC)c3)C2)CC1 (stereo unspecified) as the compound, how does the RP-LC retention time read?
A: Its RP-LC retention time is 626 s.

Q: Which RP-LC retention time does the source give for CCN1C(=O)C2(CCN(C(=O)NC(C)C)CC2)c2ccccc21 here?
A: Its RP-LC retention time is 740 s.

Q: With O=C(Nc1ccc(F)cc1F)C1CC(=O)N(CCc2c[nH]c3ccc(F)cc23)C1 (stereo unspecified) as the compound, how does the RP-LC retention time read?
A: Its RP-LC retention time is 784 s.

Q: For Cc1cc(C)c(-c2noc(C)n2)c(NC(=O)c2ccccc2Br)n1, which RP-LC retention time is on record?
A: The RP-LC retention time was 762 s.

Q: With COc1cc(-c2nc3c(C)cccn3c2Nc2ccc(C)cc2)ccc1O as the compound, how does the RP-LC retention time read?
A: Its RP-LC retention time is 684 s.

Q: With COc1ccc(Cl)cc1C(=O)Nc1nc2c(s1)Cc1c(Br)ccc(OC)c1-2 as the compound, how does the RP-LC retention time read?
A: Its RP-LC retention time is 1350 s.

Q: Which RP-LC retention time does the source give for c1cncc(-c2nnc3sc(-c4ccc5c(c4)OCCO5)nn23)c1 here?
A: Its RP-LC retention time is 827 s.

Q: For COc1ccc(N2C(=O)CCC(C(=O)NCCCN3CCC(C)CC3)C2c2ccc(F)cc2)cc1 (stereo unspecified), which RP-LC retention time is on record?
A: The RP-LC retention time was 605 s.

Q: With CSc1ccc(NC(=O)Nc2cccc(-c3ccc(N4CCOCC4)nn3)c2)cc1 as the compound, how does the RP-LC retention time read?
A: Its RP-LC retention time is 726 s.

Q: With CCC(=O)Nc1ccc(-n2cnc(C(=O)NC3CCCCCC3)c2)nc1 as the compound, how does the RP-LC retention time read?
A: The RP-LC retention time was 759 s.

Q: For COc1ccc(-c2nc3cnccn3c2Nc2ccc(C(=O)NCC3CCCO3)cc2)cc1 (stereo unspecified), which RP-LC retention time is on record?
A: Its RP-LC retention time is 649 s.

Q: With COc1ccc(OC)c(-c2nnc(NC(=O)CSc3ccc(Cl)cc3)s2)c1 as the compound, how does the RP-LC retention time read?
A: Its RP-LC retention time is 947 s.

Q: With Cc1ccn2c(Nc3ccccc3C)c(-c3c(F)cccc3Cl)nc2c1 as the compound, how does the RP-LC retention time read?
A: The RP-LC retention time was 766 s.

Q: For CCNC(=O)NC1CCN(c2nc3cccnc3n(Cc3ccccc3)c2=O)CC1, which RP-LC retention time is on record?
A: The RP-LC retention time was 877 s.

Q: For O=[N+]([O-])c1cc(O)c(O)c([N+](=O)[O-])c1, which RP-LC retention time is on record?
A: Its RP-LC retention time is 730 s.

Q: For O=S(=O)(c1cccc(Cl)c1)N1CCc2nc(-c3ccccc3)ncc2C1, which RP-LC retention time is on record?
A: Its RP-LC retention time is 1170 s.

Q: For COc1ccc(Oc2cc3c(cc2NC(=O)Nc2ccccc2)n(C)c(=O)n3C)cc1, which RP-LC retention time is on record?
A: The RP-LC retention time was 893 s.

Q: For O=S(=O)(CCc1ccccc1)N1CCN(c2ccc3nncn3n2)CC1, which RP-LC retention time is on record?
A: Its RP-LC retention time is 664 s.
